# In ChEMBL document CHEMBL5505958, “Optimization of sequence and chiral content enhances therapeutic potential of tilapia piscidin peptides” (Eur J Med Chem, 2024):
# Activity calls are given as the source filed them. No cut-off for these calls is given here.
# Experiments:
# [1] = test system: Klebsiella pneumoniae; test: Bactericidal activity against Klebsiella pneumoniae 10692 assessed as inhibition of bacterial growth incubated for 16 to 20 hrs; format: functional; settings: time 16-20 hrs
# [2] = test system: Pseudomonas aeruginosa; test: Bactericidal activity against Pseudomonas aeruginosa 19660 assessed as inhibition of bacterial growth incubated for 16 to 20 hrs in presence of human serum; format: functional; settings: time 16-20 hrs
# [3] = test system: Klebsiella oxytoca; test: Bactericidal activity against Klebsiella oxytoca 13985 assessed as inhibition of bacterial growth incubated for 16 to 20 hrs in presence of human serum; format: functional; settings: time 16-20 hrs
# [4] = test system: Escherichia coli; test: Bactericidal activity against Escherichia coli 10675 assessed as inhibition of bacterial growth incubated for 16 to 20 hrs; format: functional; settings: time 16-20 hrs
# [5] = test system: Staphylococcus haemolyticus; test: Antibacterial activity against Staphylococcus haemolyticus 15237 assessed as inhibition of bacterial growth incubated for 16 to 20 hrs; format: functional; settings: time 16-20 hrs
# [6] = test system: Salmonella typhimurium; test: Bactericidal activity against Salmonella typhimurium DT104 assessed as inhibition of bacterial growth incubated for 16 to 20 hrs in presence of human serum; format: functional, Salmonella enterica subsp. enterica serovar Typhimurium; settings: Salmonella enterica, time 16-20 hrs
# [7] = test system: Staphylococcus haemolyticus; test: Bactericidal activity against Staphylococcus haemolyticus 15237 assessed as inhibition of bacterial growth incubated for 16 to 20 hrs; format: functional; settings: time 16-20 hrs
# [8] = test system: Enterococcus faecium; test: Antibacterial activity against Enterococcus faecium 10067 assessed as inhibition of bacterial growth incubated for 16 to 20 hrs in presence of human serum; format: functional; settings: time 16-20 hrs
# [9] = test system: Vibrio vulnificus; test: Antibacterial activity against Vibrio vulnificus 204 assessed as inhibition of bacterial growth incubated for 16 to 20 hrs in presence of human serum; format: functional; settings: time 16-20 hrs
# [10] = test system: Klebsiella pneumoniae; test: Bactericidal activity against Klebsiella pneumoniae TL 297 assessed as inhibition of bacterial growth incubated for 16 to 20 hrs in presence of human serum; format: functional; settings: time 16-20 hrs
# [11] = test system: Salmonella typhimurium; test: Antibacterial activity against Salmonella typhimurium DT104 assessed as inhibition of bacterial growth incubated for 16 to 20 hrs; format: functional, Salmonella enterica subsp. enterica serovar Typhimurium; settings: Salmonella enterica, time 16-20 hrs
# [12] = test system: Salmonella enterica; test: Bactericidal activity against Salmonella enterica 15455 assessed as inhibition of bacterial growth incubated for 16 to 20 hrs in presence of human serum; format: functional; settings: time 16-20 hrs
# [13] = test system: Klebsiella pneumoniae; test: Antibacterial activity against Klebsiella pneumoniae TL 297 assessed as inhibition of bacterial growth incubated for 16 to 20 hrs in presence of human serum; format: functional; settings: time 16-20 hrs
# [14] = test system: Acinetobacter baumannii; test: Bactericidal activity against Acinetobacter baumannii 10591 assessed as inhibition of bacterial growth incubated for 16 to 20 hrs; format: functional; settings: time 16-20 hrs
# [15] = test system: Klebsiella pneumoniae; test: Bactericidal activity against Klebsiella pneumoniae BAA 2473 assessed as inhibition of bacterial growth incubated for 16 to 20 hrs; format: functional; settings: time 16-20 hrs
# [16] = test system: Klebsiella oxytoca; test: Bactericidal activity against Klebsiella oxytoca 13985 assessed as inhibition of bacterial growth incubated for 16 to 20 hrs; format: functional; settings: time 16-20 hrs
# [17] = test system: Escherichia coli; test: Bactericidal activity against Escherichia coli 10675 assessed as inhibition of bacterial growth incubated for 16 to 20 hrs in presence of human serum; format: functional; settings: time 16-20 hrs
# [18] = test system: Salmonella typhimurium; test: Bactericidal activity against Salmonella typhimurium DT104 assessed as inhibition of bacterial growth incubated for 16 to 20 hrs; format: functional, Salmonella enterica subsp. enterica serovar Typhimurium; settings: Salmonella enterica, time 16-20 hrs
# [19] = test system: Klebsiella oxytoca; test: Antibacterial activity against Klebsiella oxytoca 13985 assessed as inhibition of bacterial growth incubated for 16 to 20 hrs; format: functional; settings: time 16-20 hrs
# [20] = test system: Acinetobacter baumannii; test: Bactericidal activity against Acinetobacter baumannii 10591 assessed as inhibition of bacterial growth incubated for 16 to 20 hrs in presence of human serum; format: functional; settings: time 16-20 hrs
# [21] = test system: Rhizopus arrhizus; test: Antifungal activity against Rhizopus oryzae 34550 assessed as inhibition of fungal growth incubated for 16 to 20 hrs; format: functional; settings: time 16-20 hrs
# [22] = test system: Enterococcus faecium; test: Bactericidal activity against Enterococcus faecium 10067 assessed as inhibition of bacterial growth incubated for 16 to 20 hrs in presence of human serum; format: functional; settings: time 16-20 hrs
# [23] = test system: Pseudomonas aeruginosa; test: Antibacterial activity against Pseudomonas aeruginosa 19660 assessed as inhibition of bacterial growth incubated for 16 to 20 hrs in presence of human serum; format: functional; settings: time 16-20 hrs
# [24] = test system: Salmonella enterica; test: Antibacterial activity against Salmonella enterica 15455 assessed as inhibition of bacterial growth incubated for 16 to 20 hrs in presence of human serum; format: functional; settings: time 16-20 hrs
# [25] = test system: Klebsiella oxytoca; test: Antibacterial activity against Klebsiella oxytoca 13985 assessed as inhibition of bacterial growth incubated for 16 to 20 hrs in presence of human serum; format: functional; settings: time 16-20 hrs
# [26] = test system: Salmonella typhimurium; test: Antibacterial activity against Salmonella typhimurium DT104 assessed as inhibition of bacterial growth incubated for 16 to 20 hrs in presence of human serum; format: functional, Salmonella enterica subsp. enterica serovar Typhimurium; settings: Salmonella enterica, time 16-20 hrs
# [27] = test system: Enterococcus faecium; test: Antibacterial activity against Enterococcus faecium 10067 assessed as inhibition of bacterial growth incubated for 16 to 20 hrs; format: functional; settings: time 16-20 hrs
# [28] = test system: Vibrio vulnificus; test: Antibacterial activity against Vibrio vulnificus 204 assessed as inhibition of bacterial growth incubated for 16 to 20 hrs; format: functional; settings: time 16-20 hrs
# [29] = test system: Staphylococcus aureus; test: Bactericidal activity against Staphylococcus aureus 10780 assessed as inhibition of bacterial growth incubated for 16 to 20 hrs; format: functional; settings: time 16-20 hrs
# [30] = test system: Escherichia coli; test: Antibacterial activity against Escherichia coli 10675 assessed as inhibition of bacterial growth incubated for 16 to 20 hrs; format: functional; settings: time 16-20 hrs
# [31] = test system: Enterococcus faecalis; test: Antibacterial activity against Enterococcus faecalis 10066 assessed as inhibition of bacterial growth incubated for 16 to 20 hrs; format: functional; settings: time 16-20 hrs
# [32] = test system: Klebsiella aerogenes; test: Antibacterial activity against Enterobacter aerogenes 15630 assessed as inhibition of bacterial growth incubated for 16 to 20 hrs; format: functional; settings: time 16-20 hrs
# [33] = test system: Rhizopus arrhizus; test: Fungicidal activity against Rhizopus oryzae 34550 assessed as inhibition of fungal growth incubated for 16 to 20 hrs in presence of human serum; format: functional; settings: time 16-20 hrs
# [34] = test system: Acinetobacter baumannii; test: Antibacterial activity against Acinetobacter baumannii 10591 assessed as inhibition of bacterial growth incubated for 16 to 20 hrs; format: functional; settings: time 16-20 hrs
# [35] = test system: Staphylococcus aureus; test: Antibacterial activity against Staphylococcus aureus 10780 assessed as inhibition of bacterial growth incubated for 16 to 20 hrs; format: functional; settings: time 16-20 hrs
# [36] = test system: Klebsiella pneumoniae; test: Antibacterial activity against Klebsiella pneumoniae 10692 assessed as inhibition of bacterial growth incubated for 16 to 20 hrs; format: functional; settings: time 16-20 hrs
# [37] = test system: Yersinia enterocolitica; test: Antibacterial activity against Yersinia enterocolitica 13999 assessed as inhibition of bacterial growth incubated for 16 to 20 hrs; format: functional; settings: time 16-20 hrs
# [38] = test system: Klebsiella pneumoniae; test: Antimicrobial activity against drug-resistant Klebsiella pneumoniae BAA 2473 infected in C57BL/6 mouse assessed as reduction in bacterial load at 5 mg/kg, po administered for 2 hrs and measured at 24 hrs; format: functional, organism-based; settings: time 26.0 hrs
# [39] = test system: Enterococcus faecium; test: Bactericidal activity against Enterococcus faecium 10067 assessed as inhibition of bacterial growth incubated for 16 to 20 hrs; format: functional; settings: time 16-20 hrs
# [40] = test system: Acinetobacter baumannii; test: Antibacterial activity against Acinetobacter baumannii 10591 assessed as inhibition of bacterial growth incubated for 16 to 20 hrs in presence of human serum; format: functional; settings: time 16-20 hrs
# [41] = test system: Rhizopus arrhizus; test: Fungicidal activity against Rhizopus oryzae 34550 assessed as inhibition of fungal growth incubated for 72 hrs; format: functional
# [42] = test system: Klebsiella aerogenes; test: Bactericidal activity against Enterobacter aerogenes 15630 assessed as inhibition of bacterial growth incubated for 16 to 20 hrs; format: functional; settings: time 16-20 hrs
# [43] = test system: Vibrio vulnificus; test: Bactericidal activity against Vibrio vulnificus 204 assessed as inhibition of bacterial growth incubated for 16 to 20 hrs; format: functional; settings: time 16-20 hrs
# [44] = test system: Salmonella enterica; test: Bactericidal activity against Salmonella enterica 15455 assessed as inhibition of bacterial growth incubated for 16 to 20 hrs; format: functional; settings: time 16-20 hrs
# [45] = test system: Yersinia enterocolitica; test: Bactericidal activity against Yersinia enterocolitica 13999 assessed as inhibition of bacterial growth incubated for 16 to 20 hrs; format: functional; settings: time 16-20 hrs
# [46] = test system: Enterococcus faecalis; test: Bactericidal activity against Enterococcus faecalis 10066 assessed as inhibition of bacterial growth incubated for 16 to 20 hrs; format: functional; settings: time 16-20 hrs
# [47] = test system: Escherichia coli; test: Antibacterial activity against Escherichia coli 10675 assessed as inhibition of bacterial growth incubated for 16 to 20 hrs in presence of human serum; format: functional; settings: time 16-20 hrs
# [48] = test system: Klebsiella pneumoniae; test: Antibacterial activity against Klebsiella pneumoniae BAA 2473 assessed as inhibition of bacterial growth incubated for 16 to 20 hrs; format: functional; settings: time 16-20 hrs
# [49] = test system: Vibrio vulnificus; test: Bactericidal activity against Vibrio vulnificus 204 assessed as inhibition of bacterial growth incubated for 16 to 20 hrs in presence of human serum; format: functional; settings: time 16-20 hrs
# [50] = test system: Salmonella enterica; test: Antibacterial activity against Salmonella enterica 15455 assessed as inhibition of bacterial growth incubated for 16 to 20 hrs; format: functional; settings: time 16-20 hrs
smiles,measurement,setting,value
C[C@H]1c2cccc(O)c2C(=O)C2=C(O)[C@]3(O)C(=O)C(C(N)=O)=C(O)[C@@H](N(C)C)[C@@H]3[C@@H](O)[C@@H]21 [DOXYCYCLINE ANHYDROUS],MBC,[1],100 µM
same,MBC,[2],6.25 µM
same,MBC,[3],100 µM
same,MBC,[4],100 µM
same,MIC,[5],< 1.56 µM
same,MBC,[6],> 100 µM
same,MBC,[7],< 1.56 µM
same,MIC,[8],0.39 µM
same,MIC,[9],< 0.39 µM
same,MBC,[10],25 µM
same,MIC,[11],6.25 µM
same,MBC,[12],> 100 µM
same,MIC,[13],25 µM
same,MBC,[14],1.56 µM
same,MBC,[15],100 µM
same,MBC,[16],200 µM
same,MBC,[17],100 µM
same,MBC,[18],6.25 µM
same,MIC,[19],6.25 µM
same,MBC,[20],6.25 µM
same,MIC,[21],> 100 µM
same,MBC,[22],12.5 µM
same,MIC,[23],6.25 µM
same,MIC,[24],6.25 µM
same,MIC,[25],6.25 µM
same,MIC,[26],12.5 µM
same,MIC,[27],0.2 µM
same,MIC,[28],< 0.39 µM
same,MBC,[29],12.5 µM
same,MIC,[30],3.13 µM
same,MIC,[31],< 1.56 µM
same,MIC,[32],3.13 µM
same,MFC,[33],12.5 µM
same,MIC,[34],0.78 µM
same,MIC,[35],0.2 µM
same,MIC,[36],3.13 µM
same,MIC,[37],3.13 µM
same,Activity,[38],inactive
same,MBC,[39],6.25 µM
same,MIC,[40],1.56 µM
same,MFC,[41],> 100 µM
same,MBC,[42],200 µM
same,MBC,[43],< 0.39 µM
same,MBC,[44],> 100 µM
same,MBC,[45],< 1.56 µM
same,MBC,[46],6.25 µM
same,MIC,[47],3.13 µM
same,MIC,[48],50 µM
same,MBC,[49],< 0.39 µM
same,MIC,[50],3.13 µM
